Test results reported in PubChem BioAssay (NCI).
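48-hour exposure; five concentrations; linearly interpolated endpoints. Here, GI50 denotes the concentration required for 50% inhibition of growth. TGI marks complete inhibition of growth.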

Experiments:
Experiment in all cases: NCI anticancer screen, dose series, 48 h
MALME-3M melanoma = system: MALME-3M melanoma
OVCAR-5 ovarian = system: OVCAR-5 ovarian
HCC-2998 colon = system: HCC-2998 colon
NCI-H460 lung = system: NCI-H460 lung
A498 renal = system: A498 renal
MDA-MB-435 = system: MDA-MB-435
HT29 colon = system: HT29 colon
SF-268 CNS = system: SF-268 CNS
BT-549 breast = system: BT-549 breast
OVCAR-4 ovarian = system: OVCAR-4 ovarian

SMILES | GI50 (MALME-3M melanoma) | TGI (MALME-3M melanoma) | TGI (OVCAR-5 ovarian) | GI50 (HCC-2998 colon) | TGI (HCC-2998 colon) | GI50 (NCI-H460 lung) | TGI (NCI-H460 lung) | GI50 (A498 renal) | TGI (A498 renal) | GI50 (MDA-MB-435) | TGI (MDA-MB-435) | GI50 (HT29 colon) | TGI (HT29 colon) | GI50 (SF-268 CNS) | TGI (SF-268 CNS) | TGI (BT-549 breast) | GI50 (OVCAR-4 ovarian) | TGI (OVCAR-4 ovarian) | GI50 (OVCAR-5 ovarian) | GI50 (BT-549 breast)
COC(=O)c1c(-c2ccccc2)csc1NC(=O)c1c(-c2ccccc2)noc1C | > 100 µM | > 100 µM | > 100 µM | > 21 µM | > 100 µM | 0.177 µM | > 100 µM | > 100 µM | > 100 µM | 1.2 µM | > 100 µM | 0.399 µM | > 100 µM | 0.89 µM | > 100 µM | > 100 µM | 5.38 µM | > 100 µM |  | 
NC(=O)NC(=O)CI | 1.42 µM | 3.32 µM | 26.1 µM | 18.5 µM | 35.1 µM | 18.5 µM | 37.3 µM | 15 µM | 31.7 µM | 4.02 µM | 15.9 µM | 8.97 µM | 25.1 µM | 16.2 µM | 36.4 µM | 11.3 µM | 1.77 µM | 4.08 µM | 11.3 µM | 4.28 µM
CCOC1NC(=O)Oc2ccccc21 (configuration not stated) |  | > 100 µM | > 100 µM |  | > 100 µM |  | > 100 µM |  | > 100 µM |  | > 100 µM |  | > 100 µM |  | > 100 µM | > 100 µM |  | > 100 µM |  | 
Cc1ccc(/C=C(\C#N)n2nnc3cc(F)c(F)cc32)cc1 | 15.9 µM | 56.7 µM | > 100 µM | 2.96 µM | 11.6 µM | 3.52 µM | 11.3 µM | 2.51 µM | 7.84 µM | 0.36 µM | 17.2 µM | 0.421 µM | 1.53 µM | 3.63 µM | 20.9 µM | 6.81 µM | 2.58 µM | 15.4 µM | 3.39 µM | 1.95 µM
O=C(Nc1ccccc1Cl)c1ccc(NC2=C(Cl)C(=O)N(Cc3ccccc3)C2=O)cc1 | 86.1 µM | > 100 µM | > 100 µM | 13.7 µM | 26.6 µM | 33.3 µM | > 100 µM | > 100 µM | > 100 µM | 48.4 µM | > 100 µM | 44.8 µM | > 100 µM | 23.3 µM | 55.1 µM | > 100 µM | 78.9 µM | > 100 µM | > 100 µM | 43 µM
COc1ccccc1Nc1nc(-c2cc3cccc(C(F)(F)F)c3oc2=O)cs1 | 1.63 µM | > 85.6 µM | > 100 µM | 0.344 µM | > 47.7 µM | 0.218 µM | > 39.5 µM | 0.0366 µM | 38.9 µM | 0.0297 µM | 0.164 µM | 0.126 µM | 11.9 µM | 0.214 µM | > 100 µM |  | 0.185 µM | > 63.3 µM | 0.572 µM | 0.26 µM
CSC(=S)N/N=C(\C)c1ccccn1 | 0.177 µM | 9.1 µM | 22.2 µM | 0.509 µM | 16.2 µM | 0.289 µM | 1.23 µM | 0.458 µM | 6.33 µM | 0.407 µM | 16.6 µM | < 0.0394 µM | 18.1 µM | 0.349 µM | 14.5 µM | 14.8 µM | < 0.0169 µM | 10.6 µM | 0.143 µM | 0.44 µM
Cn1c(=O)c(Cc2ccc(F)cc2F)cc2cnc(NC3CCOCC3)nc21 | > 25 µM | > 25 µM | > 25 µM | > 25 µM | > 25 µM | > 25 µM | > 25 µM | 12.3 µM | > 25 µM | > 25 µM | > 25 µM | > 25 µM | > 25 µM | > 25 µM | > 25 µM | > 25 µM | > 21.7 µM | > 25 µM | > 25 µM | > 16.6 µM
O=C(CC1C(=O)Nc2ccccc2S1=O)Nc1cccc(Cl)c1 (configuration not stated) |  | > 84.4 µM | > 100 µM |  | > 100 µM |  | > 83.2 µM |  | 47.3 µM |  | > 100 µM |  | > 55.1 µM |  | > 100 µM | 77.6 µM |  | > 100 µM |  | 
O=Nc1c(-c2cccc([N+](=O)[O-])c2)nc2ncccn12 | 14.5 µM | 29.1 µM | 39.1 µM | 15.2 µM | 28.9 µM | 17.8 µM | 54.8 µM | 17.4 µM | 38.3 µM | 13.7 µM | 36.4 µM | 9.84 µM | 44.1 µM | 18.3 µM | 66.8 µM | 32.1 µM | 12 µM | 55.2 µM | 18.5 µM | 15.8 µM
COc1ccc(-n2c(N)c(C(=O)NCCN3CCOCC3)c3nc4ccccc4nc32)cc1OC | 6.32 µM | 71.8 µM | > 100 µM | 94.3 µM | > 100 µM | 3.28 µM | > 100 µM | 7.98 µM | > 100 µM | 12.8 µM | > 100 µM | 5.8 µM | > 100 µM | 5.39 µM | > 100 µM | > 100 µM | 68.5 µM | > 100 µM | > 100 µM | 27.6 µM
COc1ccc(C2CC(c3cc(OC)c(OC)c(OC)c3)=NN2)cc1 (configuration not stated) | 24.7 µM | > 100 µM | > 100 µM | 9.35 µM | 37.2 µM | 3.47 µM | 30.1 µM | 5.99 µM | 47.6 µM | 2.96 µM | 20.9 µM | 3.91 µM | > 100 µM | 20 µM | > 100 µM | > 100 µM | 12.8 µM | > 100 µM | 49.3 µM | 8.02 µM
C=C1C(=O)O[C@H]2[C@H]1CC/C(Cn1cc(CCC)nn1)=C\CC[C@@]1(C)O[C@@H]21 | 4.7 µM | 18.4 µM | 29.5 µM | 15.1 µM | 32.9 µM | 21.2 µM | 41.5 µM | 21.5 µM | 36.6 µM | 10.4 µM | 24.9 µM | 5.5 µM | 18.2 µM | 13.7 µM | 28.4 µM | 28.6 µM | 9.46 µM | 22.7 µM | 14.1 µM | 14.2 µM
O=C(O)/C(Cl)=C(/Cl)C(=O)Nc1cccc(Cl)c1 |  | 31.7 µM | 39.7 µM |  | 37.1 µM |  | > 100 µM |  | > 100 µM |  | 46.5 µM |  | 42.3 µM |  | 48.3 µM | 34.1 µM |  | 33.6 µM |  | 
O=Cc1ccc(C(F)(F)F)cc1.[C-]#[O+].[C-]#[O+].[C-]#[O+].[Cr] | 26.8 µM | 91 µM | > 100 µM | 53.6 µM | > 100 µM | 13.3 µM | 40.3 µM | 21.4 µM | > 100 µM | 14.3 µM | 45.7 µM | 22.6 µM | 54.3 µM | 21 µM | > 100 µM | > 100 µM | 27.1 µM | > 100 µM | 53.9 µM | 40.1 µM
COc1ccc(C(=O)Nc2cccc(C3CC(=O)c4c(cc(OC)c(OC)c4OC)O3)c2)cc1 (configuration not stated) | 1.56 µM | 32.6 µM | > 100 µM | 3.46 µM | 87.1 µM | 2.21 µM | 11.7 µM | 2 µM | 8.12 µM | 0.276 µM | 1.4 µM | 3.38 µM | 12.2 µM | 2.29 µM | > 100 µM | 7.81 µM | 3.11 µM | 30.7 µM | 4.98 µM | 1.01 µM
O=C1NC(=NCCc2ccccc2Cl)S/C1=C\c1ccc2ncccc2c1 | > 21.3 µM | > 25 µM | > 25 µM | 6.33 µM | > 25 µM | 6.34 µM | > 25 µM | 3.68 µM | 17.6 µM | 1.45 µM | 9.81 µM | 2.79 µM | > 18.9 µM | 4.68 µM | > 25 µM | > 22 µM | 4.26 µM | > 14.9 µM | 12.2 µM | 4.94 µM
CCCCCCCCSC1=CC(=O)C(OC)=C(OC)C1=O | 1.96 µM | 4.44 µM | 16.7 µM | 11.3 µM | 24.4 µM | 6.29 µM | 19.8 µM | 6.13 µM | 20.4 µM | 1.88 µM | 7.57 µM | 3.75 µM | 12.6 µM | 3.75 µM | 14.7 µM | 19.4 µM | 1.27 µM | 3.14 µM | 4.25 µM | 7 µM
CO/N=C1/c2cc(OC)ccc2-c2c(NOC)nc3ccccc3c21 | 0.103 µM | 23.7 µM | 71.6 µM | 35.6 µM | > 100 µM | 29.5 µM | > 100 µM | 16.1 µM | 36.9 µM | > 100 µM | > 100 µM | 42 µM | > 100 µM | 41.6 µM | > 100 µM | 49.6 µM | 27.3 µM | > 100 µM | 22 µM | 21.9 µM
N#Cc1c2ccccc2c2nnc3cc(Cl)c(Cl)cc3n12 | > 100 µM | > 100 µM | > 100 µM | 23 µM | 82.1 µM | 54.2 µM | > 100 µM | 56.6 µM | > 100 µM | > 100 µM | > 100 µM | > 100 µM | > 100 µM | 27.7 µM | 83.3 µM | > 100 µM | 40.8 µM | > 100 µM | > 100 µM | 60.9 µM
CC1SC(c2cccs2)N(NC(=O)C(O)c2ccccc2)C1=O (configuration not stated) | > 100 µM | > 100 µM | > 100 µM | > 100 µM | > 100 µM | > 100 µM | > 100 µM | > 100 µM | > 100 µM | > 100 µM | > 100 µM | > 100 µM | > 100 µM | > 100 µM | > 100 µM | > 100 µM | > 100 µM | > 100 µM | > 100 µM | > 100 µM
CC(C)(C)c1ccc(-c2nnc(SCc3ccc(Cl)cc3)n2-c2cccc(C(F)(F)F)c2)cc1 |  | > 100 µM | > 96.1 µM |  | > 62.4 µM |  | > 100 µM |  | > 100 µM |  | > 100 µM |  | > 100 µM |  | > 100 µM | > 100 µM |  | > 100 µM |  | 
C[n+]1c2ccccc2c(NC2CCNCC2)c2[nH]c3ccccc3c21 | 1.35 µM | 3.55 µM | 17.6 µM | 0.331 µM | 1.63 µM | 0.223 µM | 1.53 µM | 1.35 µM | 5.05 µM | 2.33 µM | 8.42 µM | 0.18 µM | 2.64 µM | 0.0378 µM | 0.773 µM | 13.3 µM | 0.253 µM | 2.57 µM | 1.76 µM | 2.13 µM
